From patent publication US4082761A, “Triazolo[4,3-a][1,4]benzodiazepinium quaternary salts” (The Upjohn Company, priority 1973, dated 1978)
Structures can show the parent of a compound that is named as a salt.

Experiments:
Format in all cases: in vivo
mice [1] = experiment: Chimney test (mice fail to back up and out of a vertical glass cylinder within 30 seconds); settings: Mus musculus, ip; intraperitoneal injection in mice; 50% of the mice failed to back out within 30 seconds; read-out: ED50 Ch (chimney test)
Text: (§1) Tranquilizing effects of the compounds of this invention are shown by the following tests in mice:
Chimney test: [Med. Exp. 4, 145 (1961)]: The test determines the ability of mice to back up and out of a vertical glass cylinder within 30 seconds. At the effective dosage, 50% of the mice failed doing it.

mice [2] = experiment: Dish test (mice remaining in the dish for more than 3 minutes); settings: Mus musculus, ip, 0.05 h; intraperitoneal injection in mice; 50% of the mice remain in the dish for more than 3 minutes; read-out: ED50 D (dish test)
Protocol: as §1
Dish test: Mice in Petri dishes (10 cm. diameter, 5 cm. high, partially embedded in wood shavings), climb out in a very short time, when not treated. Mice remaining in the dish for more than 3 minutes indicates tranquilization. ED50 equals the dose of test compound at which 50% of the mice remain in the dish.

mice [3] = experiment: Pedestal test (mice stay on the pedestal for more than 1 minute); settings: Mus musculus, ip, 1 min, intraperitoneal injection in mice, read-out: ED50 P (pedestal test)
Protocol: as §1
Pedestal test: The untreated mouse leaves a standard pedestal in less than a minute to climb back to the floor of the standard mouse box. Tranquilized mice will stay on the pedestal for more than 1 minute.

mice [4] = experiment: Nicotine antagonism test (nicotine salicylate 2 mg./kg.); settings: Mus musculus, ip, intraperitoneal injection in mice, nicotine salicylate 2 mg./kg. thirty minutes later
Protocol: as §1
Nicotine antagonism test: Mice in a group of 6 are injected with the test compound. Thirty minutes later the mice including control (untreated) mice are injected with nicotine salicylate (2 mg./kg.). The control mice show overstimulation, i.e., (1) running convulsions followed by (2) tonic extensor fits; followed by (3) death.
Ni = nicotine antagonism (2) and (3) tests.

[5] = (2) tonic extensor fits, read-out: ED50 Ni(2) (nicotine antagonism (2) test)
[6] = (3) death, read-out: ED50 Ni(3) (nicotine antagonism (3) test)

Cc1n[n+](C)c2n1-c1ccc(Cl)cc1C(c1ccccc1)=NC2 [8-Chloro-1,3-dimethyl-6-phenyl-4H-s-triazolo[4,3-a][1,4]benzodiazepinium chloride sesquihydrate]
ED50 (mice [1]): 36 mg/kg | ED50 (mice [2]): 79 mg/kg | ED50 (mice [3]): 79 mg/kg | ED50 (mice [4]; [5]): 22 mg/kg | ED50 (mice [4]; [6]): 22 mg/kg

C[n+]1nc([O-])n2c1CN=C(c1ccccc1Cl)c1cc(Cl)ccc1-2 [8-Chloro-6-(o-chlorophenyl)-1-hydroxy-3-methyl-4H-s-triazolo[4,3-a][1,4]benzodiazepinium hydroxide inner salt]
ED50 (mice [1]): 1.6 mg/kg | ED50 (mice [2]): 1.2 mg/kg | ED50 (mice [3]): 3.2 mg/kg | ED50 (mice [4]; [5]): 0.3 mg/kg | ED50 (mice [4]; [6]): 0.44 mg/kg
